Data on six compounds can be found in PubChem BioAssay (NCI).

Test systems include A549 NSCLC; ACHN renal; DU-145 prostate; HCT-116 colon; HOP-92 NSCLC; KM12 colon; OVCAR-4 ovarian; SK-OV-3 ovarian; SN12C renal; SNB-75 CNS.
Holding throughout (test): inhibition of tumour cell growth, NCI panel, 48 h

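Dose response: 5 concentrations. Exposure: 48 h. Format: 96-well plates. Endpoint: linear interpolation; highest concentration if not reached. GI50 is the concentration that inhibits growth by half. TGI: concentration producing complete growth inhibition.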 Where a SMILES comes first, the peptide text is derived from it. The star is where a group is joined. Boc = CC(C)(C)OC(=O)*; nBu = CCCC*

Take `Oc1ccccc1C=Nc1ccc(-c2nc3ccccc3s2)cc1`: the TGI in the assay on A549 NSCLC is greater than 100 µM; with ACHN renal it was 73 µM; with DU-145 prostate it was greater than 100 µM; in the assay with HCT-116 colon it was greater than 100 µM; with HOP-92 NSCLC it was 56.4 µM; with KM12 colon it was greater than 100 µM. Further, the TGI was greater than 100 µM in the assay with OVCAR-4 ovarian, greater than 100 µM with SK-OV-3 ovarian, greater than 100 µM in the assay on SN12C renal and 99.3 µM with SNB-75 CNS.
For the compound `CC1(C)OC[C@@H]([C@@]2(COC(c3ccccc3)(c3ccccc3)c3ccccc3)CC=CC(=O)O2)O1`, the TGI in the assay with A549 NSCLC was greater than 100 µM; in the assay with ACHN renal, greater than 100 µM; with DU-145 prostate it was greater than 100 µM; in the assay with HCT-116 colon, greater than 100 µM; with HOP-92 NSCLC it was 92.1 µM; in the assay with KM12 colon it was greater than 100 µM. In addition, the TGI in the assay with OVCAR-4 ovarian was greater than 100 µM; in the assay with SK-OV-3 ovarian, greater than 100 µM; with SN12C renal, 97.1 µM; in the assay on SNB-75 CNS it was 59.3 µM.
Take `CC(Oc1ccc(Cl)cc1Cl)C(=O)NN1C(=O)CC(=O)N(c2ccccc2)C1=S` (stereo unspecified): the TGI in the assay with A549 NSCLC is greater than 100 µM; in the assay with ACHN renal, greater than 100 µM; with DU-145 prostate it was greater than 100 µM; in the assay with HCT-116 colon it was greater than 100 µM; in the assay on HOP-92 NSCLC, 84 µM; in the assay on KM12 colon, greater than 100 µM. The TGI in the assay with OVCAR-4 ovarian, in the assay with SK-OV-3 ovarian, in the assay with SN12C renal and in the assay on SNB-75 CNS was greater than 100 µM throughout.
`COC(=O)c1c(O)ccc2c1c1c(n2Cc2cc(OC)cc(OC)c2)C(=O)c2ccccc2C1=O`: the TGI turned out to be 31.3 µM in the assay on A549 NSCLC; 56.1 µM with ACHN renal; 71.9 µM with DU-145 prostate; 15.1 µM with HCT-116 colon; 24.6 µM in the assay on HOP-92 NSCLC; 13.6 µM with KM12 colon. Also, the TGI with OVCAR-4 ovarian amounted to 50.7 µM; in the assay with SK-OV-3 ovarian it was 37.5 µM; in the assay on SN12C renal it was 24.2 µM; in the assay on SNB-75 CNS, 58.7 µM.
In the case of `Cc1cc(-c2nc3c(F)cccc3s2)ccc1N`, the TGI in the assay on A549 NSCLC, in the assay on ACHN renal, with DU-145 prostate, with HCT-116 colon, with HOP-92 NSCLC and in the assay on KM12 colon was greater than 100 µM each time. For the same compound, the TGI in the assay on OVCAR-4 ovarian, with SK-OV-3 ovarian, in the assay with SN12C renal and with SNB-75 CNS was greater than 100 µM throughout. In addition, in the assay with OVCAR-4 ovarian, the GI50 is 20.9 µM.
Regarding `CCCCOc1ccc(CC(NC(=O)OC(C)(C)C)C(=O)NC(C)C(=O)NC(Cc2ccccc2)C(=O)NCC(N)=O)cc1` (stereo unspecified) (Boc-Y(nBu)AFG-NH2; configuration not given here), the TGI with A549 NSCLC, in the assay with ACHN renal, in the assay with DU-145 prostate, with HCT-116 colon, in the assay with HOP-92 NSCLC and with KM12 colon was greater than 100 µM throughout. Besides, the TGI with OVCAR-4 ovarian, with SK-OV-3 ovarian, with SN12C renal and with SNB-75 CNS was greater than 100 µM in each case.
